Results reported in ChEMBL document CHEMBL3860091, “Synthesis and activity of newly designed aroxyalkyl or aroxyethoxyethyl derivatives of piperazine on the cardiovascular and the central nervous systems” (Bioorg Med Chem Lett, 2016).
One block for each compound: values may come before it.

Tests used:
[1] = biological target: T1, Adrenergic receptor alpha-2 (Rattus norvegicus, UniProt P22086+P19328+P22909); experiment: Displacement of [3H]clonidine from alpha2 adrenergic receptor in rat brain cerebral cortex after 25 mins by microbeta scintillation counting method; assay type: tissue-based
T1 sequence (P22086 whole entry): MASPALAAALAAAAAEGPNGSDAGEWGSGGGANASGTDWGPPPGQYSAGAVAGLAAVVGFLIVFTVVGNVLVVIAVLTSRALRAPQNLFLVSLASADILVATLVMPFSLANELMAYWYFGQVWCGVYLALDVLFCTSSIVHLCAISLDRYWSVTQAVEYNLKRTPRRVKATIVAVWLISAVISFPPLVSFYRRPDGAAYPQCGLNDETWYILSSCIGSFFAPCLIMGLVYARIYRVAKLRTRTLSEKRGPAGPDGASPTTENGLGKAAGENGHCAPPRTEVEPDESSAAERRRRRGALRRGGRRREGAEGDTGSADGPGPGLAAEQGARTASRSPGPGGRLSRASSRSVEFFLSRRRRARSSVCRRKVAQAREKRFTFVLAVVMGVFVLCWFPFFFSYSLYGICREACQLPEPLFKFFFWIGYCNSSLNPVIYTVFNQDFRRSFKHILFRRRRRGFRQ
T1 sequence (P19328 whole entry): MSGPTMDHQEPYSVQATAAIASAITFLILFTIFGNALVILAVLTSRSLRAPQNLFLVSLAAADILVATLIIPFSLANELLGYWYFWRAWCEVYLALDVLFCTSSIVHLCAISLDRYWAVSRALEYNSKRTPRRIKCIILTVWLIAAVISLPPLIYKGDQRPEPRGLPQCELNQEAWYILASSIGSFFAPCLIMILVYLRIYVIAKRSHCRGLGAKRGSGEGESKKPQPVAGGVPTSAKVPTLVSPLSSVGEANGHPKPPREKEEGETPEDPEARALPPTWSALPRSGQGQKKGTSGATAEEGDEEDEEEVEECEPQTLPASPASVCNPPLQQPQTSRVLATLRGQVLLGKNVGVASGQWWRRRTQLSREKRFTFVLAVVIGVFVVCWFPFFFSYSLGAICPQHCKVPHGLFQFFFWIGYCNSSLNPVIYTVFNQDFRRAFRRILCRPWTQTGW
T1 sequence (P22909 whole entry): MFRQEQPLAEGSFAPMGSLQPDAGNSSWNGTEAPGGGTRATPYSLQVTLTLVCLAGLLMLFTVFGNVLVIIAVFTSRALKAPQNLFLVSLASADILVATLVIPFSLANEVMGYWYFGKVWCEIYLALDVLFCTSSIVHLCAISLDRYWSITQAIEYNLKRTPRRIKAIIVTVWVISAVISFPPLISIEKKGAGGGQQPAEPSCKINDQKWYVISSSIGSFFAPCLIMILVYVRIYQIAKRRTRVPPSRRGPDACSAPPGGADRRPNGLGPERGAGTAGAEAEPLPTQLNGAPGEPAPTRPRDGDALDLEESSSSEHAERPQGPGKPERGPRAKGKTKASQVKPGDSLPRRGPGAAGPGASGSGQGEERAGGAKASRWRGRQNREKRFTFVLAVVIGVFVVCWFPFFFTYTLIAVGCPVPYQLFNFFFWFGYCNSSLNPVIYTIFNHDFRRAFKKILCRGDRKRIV

[2] = biological target: T2, 5-hydroxytryptamine receptor 1A (Homo sapiens, UniProt P08908); experiment: Displacement of [3H]8-OH-DPAT from human recombinant 5-HT1A receptor expressed in membranes after 60 mins by microbeta scintillation counting method
T2 sequence (P08908 whole entry): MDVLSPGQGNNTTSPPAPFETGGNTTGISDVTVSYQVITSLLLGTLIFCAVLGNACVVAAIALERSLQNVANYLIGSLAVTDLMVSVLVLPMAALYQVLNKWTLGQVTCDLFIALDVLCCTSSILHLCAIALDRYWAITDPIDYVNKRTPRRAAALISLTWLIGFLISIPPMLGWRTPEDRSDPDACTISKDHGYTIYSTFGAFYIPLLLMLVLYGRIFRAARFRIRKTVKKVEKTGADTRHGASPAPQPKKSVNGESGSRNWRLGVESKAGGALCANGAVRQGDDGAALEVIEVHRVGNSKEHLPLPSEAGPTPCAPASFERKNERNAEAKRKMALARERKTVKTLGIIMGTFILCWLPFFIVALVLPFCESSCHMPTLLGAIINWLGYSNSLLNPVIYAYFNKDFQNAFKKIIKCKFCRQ

[3] = system: Rattus norvegicus; experiment: Hypotensive activity in normotensive anesthetized Wistar rat assessed as systolic blood pressure at 1 mg/kg, iv measured 5 mins post dose (reference value: 107.4 to 148.3 mmHg); assay type: functional
[4] = Antidepressant-like activity in albino Swiss (CD-1) mouse assessed as immobility time at 10 mg/kg, ip administered 30 mins prior to test measured for last 4 mins of 6 mins observation by forced swim test (reference value: 178.3 +/- 12.3 sec); assay type: functional, organism-based
[5] = system: Rattus norvegicus; experiment: Hypotensive activity in normotensive anesthetized Wistar rat assessed as diastolic blood pressure at 0.5 mg/kg, iv measured 5 mins post dose (reference value: 81.6 to 115.2 mmHg); assay type: functional
[6] = system: Rattus norvegicus; experiment: Hypotensive activity in normotensive anesthetized Wistar rat assessed as diastolic blood pressure at 0.5 mg/kg, iv measured 10 mins post dose (reference value: 81.6 to 115.2 mmHg); assay type: functional
[7] = system: Rattus norvegicus; experiment: Hypotensive activity in normotensive anesthetized Wistar rat assessed as systolic blood pressure at 0.5 mg/kg, iv measured 20 mins post dose (reference value: 107.4 to 148.3 mmHg); assay type: functional
[8] = system: Rattus norvegicus; experiment: Hypotensive activity in normotensive anesthetized Wistar rat assessed as diastolic blood pressure at 0.5 mg/kg, iv measured 20 mins post dose (reference value: 81.6 to 115.2 mmHg); assay type: functional
[9] = system: Rattus norvegicus; experiment: Hypotensive activity in normotensive anesthetized Wistar rat assessed as systolic blood pressure at 0.5 mg/kg, iv measured 30 mins post dose (reference value: 107.4 to 148.3 mmHg); assay type: functional
[10] = system: Rattus norvegicus; experiment: Hypotensive activity in normotensive anesthetized Wistar rat assessed as diastolic blood pressure at 0.5 mg/kg, iv measured 30 mins post dose (reference value: 81.6 to 115.2 mmHg); assay type: functional
[11] = system: Rattus norvegicus; experiment: Hypotensive activity in normotensive anesthetized Wistar rat assessed as systolic blood pressure at 0.5 mg/kg, iv measured 60 mins post dose (reference value: 107.4 to 148.3 mmHg); assay type: functional
[12] = system: Rattus norvegicus; experiment: Hypotensive activity in normotensive anesthetized Wistar rat assessed as diastolic blood pressure at 0.5 mg/kg, iv measured 60 mins post dose (reference value: 81.6 to 115.2 mmHg); assay type: functional
[13] = Antidepressant-like activity in albino Swiss (CD-1) mouse assessed as immobility time at 5 mg/kg, ip administered 30 mins prior to test measured for last 4 mins of 6 mins observation by forced swim test (reference value: 178.3 +/- 12.3 sec); assay type: functional, organism-based
[14] = system: Mus musculus; experiment: Toxicity in albino Swiss (CD-1) mouse assessed as effect on spontaneous locomotor activity by measuring number of crossings at 5 mg/kg, ip administered 30 mins prior to test measured for last 4 mins of 6 mins observation (reference value: 191.5 to 225.4); assay type: organism-based; details: in vivo

SMILES: Cc1cccc(OCCN2CCN(c3ccccc3)CC2)c1C.Cl.Cl
Ki [1]: 289 nM | Ki [2]: 12.3 nM | Activity [3]: 99.8 mmHg | TIME [4]: 0.0446 h

SMILES: COc1ccccc1N1CCN(CCOCCOc2cccc(C)c2C)CC1.Cl.Cl
Ki [1]: 893 nM | Ki [2]: 5 nM | Activity [3]: 129.8 mmHg | TIME [4]: 0.0331 h | TIME [13]: 0.0339 h | Activity [14]: 232.5

Continued, in another order:

Ki [1]: 810 nM | Ki [2]: 5.4 nM
SMILES: Cc1cccc(OCCCN2CCN(c3ccccc3)CC2)c1C.Cl.Cl
Activity [3]: 143.8 mmHg | TIME [4]: 0.048 h

Ki [1]: 505.7 nM | Ki [2]: 4 nM
SMILES: Cc1cccc(Cl)c1OCCCCN1CCN(c2ccccc2)CC1.Cl.Cl
Activity [3]: 129.3 mmHg | Activity [5]: 100.5 mmHg | Activity [6]: 101 mmHg | Activity [7]: 138 mmHg | Activity [8]: 102.5 mmHg | Activity [9]: 131.5 mmHg | Activity [10]: 101.5 mmHg | Activity [11]: 130.8 mmHg | Activity [12]: 97 mmHg | TIME [4]: 0.0193 h | TIME [13]: 0.0416 h | Activity [14]: 152.4

Ki [1]: 370.5 nM | Ki [2]: 2 nM
SMILES: COc1ccccc1N1CCN(CCCCOc2c(C)cccc2C)CC1.Cl
Activity [3]: 129.5 mmHg | Activity [5]: 102 mmHg | Activity [6]: 100.8 mmHg | Activity [7]: 121.7 mmHg | Activity [8]: 99.8 mmHg | Activity [9]: 119.3 mmHg | Activity [10]: 98.8 mmHg | Activity [11]: 115.3 mmHg | Activity [12]: 94.3 mmHg | TIME [4]: 0.0398 h
